pKi: −log10 of the molar value. Like-named read-outs stand apart in the source and are kept apart here.
How the values were obtained:
GST-MCL-1 = GST-MCL-1 (Homo sapiens (Human), UniProt Q07820); assay: TR-FRET MCL-1 binding assay (competition with probe F-Bak); settings: for Ki: read-out: MCL-1 Binding Ki (nM, 10% HS), in the presence of 10% HS; for pKi: without HS, read-out: MCL-1 Binding Ki
Method: For the assay, an acoustic dispenser was used to prepare dilution series from 10 mM test compounds in 100% DMSO and directly transfer 160 nL into low volume 384-well assay plates. 8 μL of a protein/probe/antibody mix was then added to each well resulting in final concentrations listed below: Test compound: 11 three-fold dilutions beginning at 25 μM
The samples were then mixed on a shaker for 1 minute and incubated for an additional 2 hours at room temperature. For each assay plate, a probe/antibody and protein/antibody/probe mixture were included as a negative and a positive control, respectively. Fluorescence was measured on the Envision (Perkin Elmer) using a 340/35 nm excitation filter and 520/525 (F-Bak) and 495/510 nm (Tb-labeled anti-his antibody) emission filters. […] The TR-FRET assay can be performed in the presence of varying concentrations of human serum (HS) or fetal bovine serum (FBS). Compounds were tested both without HS and in the presence of 10% HS.

[1] = test system: NCI-H929 human multiple myeloma tumor cell line; assay: NCI-H929 cell viability assay (CellTiter-Glo); type: cell-based; settings: NCI-H929, read-out: H929 Viability IC50 (μM), 10% FBS, 24 hours of compound treatment
[2] = test system: AMO-1 human multiple myeloma tumor cell line; assay: AMO-1 cell viability assay (CellTiter-Glo); type: cell-based; settings: AMO1, read-out: AMO-1 Viability IC50 (μM), 10% FBS, 24 hours of compound treatment
Method: In one exemplary set of conditions, NCI-H929 or AMO-1 (ATCC. Manassas, Va.) were plated 4.000 cells per well in 384-well tissue culture plates (Corning. Corning, N.Y.) in a total volume of 25 μL RPMI tissue culture medium supplemented with 10% fetal bovine serum (Sigma-Aldrich, St. Louis, Mo.) and treated with a 3-fold serial dilution of the compounds of interest with a Labcyte Echo from a final concentration of 10 μM to 0.0005 μM. Each concentration was tested in duplicate at least 3 independent times. A luminescent signal proportional to the number of viable cells following 24 hours of compound treatment was determined using the CellTiter-Glo® Luminescent Cell Viability Assay according to the manufacturer's recommendations (Promega Corp., Madison, Wis.). The plates were read in a Perkin Elmer Envision using a Luminescence protocol. To generate dose response curves the data is normalized to percent viability by setting the averages of the staurosporine (10 uM) and DMSO only control wells to 0% and (00)% viability respectively. The IC50 values for the compounds are generated by fitting the normalized data with Accelrys Assay Explorer 3.3 to a sigmoidal curve model using linear regression.

Sequence of GST-MCL-1 (Q07820 whole entry): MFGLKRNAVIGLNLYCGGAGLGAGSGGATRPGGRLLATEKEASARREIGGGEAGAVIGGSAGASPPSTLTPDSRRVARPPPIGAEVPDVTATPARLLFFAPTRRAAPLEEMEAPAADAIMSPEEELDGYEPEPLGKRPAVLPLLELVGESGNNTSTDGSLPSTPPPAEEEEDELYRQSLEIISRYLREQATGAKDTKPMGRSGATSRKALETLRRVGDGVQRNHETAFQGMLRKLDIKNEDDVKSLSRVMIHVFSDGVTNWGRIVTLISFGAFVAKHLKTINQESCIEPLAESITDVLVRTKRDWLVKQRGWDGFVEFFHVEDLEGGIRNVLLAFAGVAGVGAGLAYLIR

Row | Compound | Ki (GST-MCL-1) | pKi (GST-MCL-1) | IC50 [1] | IC50 [2]
1 | Cc1c(Cl)c2c(Cl)c(C)c1-c1c(C3CCCCC3)sc3ncnc(c13)O[C@@H](C(=O)O)Cc1cc(ccc1OCc1ccnc(-c3ccc(OC[C@@H]4COCCO4)cc3)n1)OC[C@@H](CN1CCN(C)CC1)O2 [Example 17, (7R,16R)-19,23-dichloro-1-cyclohexyl-10-{[2-(4-{[(2S)-1,4-dioxan-2-yl]methoxy}phenyl)pyrimidin-4-yl]methoxy}-20,22-dimethyl-16-[(4-methylpiperazin-1-yl)methyl]-7,8,15,16-tetrahydro-18,21-etheno-9,13-(metheno)-6,14,17-trioxa-2-thia-3,5-diazacyclononadeca[1,2,3-cd]indene-7-carboxylic acid] | 4.11 nM | 10.05 | 0.00565 µM | 1 nM
2 | COc1ccccc1-c1nccc(COc2ccc3cc2C[C@H](C(=O)O)Oc2ncnc4sc(C[C@@H]5COCCO5)c(c24)-c2c(C)c(Cl)c(c(Cl)c2C)O[C@H](CN2CCN(C)CC2)CO3)n1 [Example 18, (7R,16R)-19,23-dichloro-1-{[(2R)-1,4-dioxan-2-yl]methyl}-10-{[2-(2-methoxyphenyl)pyrimidin-4-yl]methoxy}-20,22-dimethyl-16-[(4-methylpiperazin-1-yl)methyl]-7,8,15,16-tetrahydro-18,21-etheno-13,9-(metheno)-6,14,17-trioxa-2-thia-3,5-diazacyclononadeca[1,2,3-cd]indene-7-carboxylic acid] | 0.24 nM | 9.95 | 0.00995 µM | 6.12 nM
3 | COc1ccccc1-c1nccc(COc2ccc3cc2C[C@H](C(=O)O)Oc2ncnc4sc(C[C@H]5COCCO5)c(c24)-c2c(C)c(Cl)c(c(Cl)c2C)O[C@H](CN2CCN(C)CC2)CO3)n1 [Example 19, (7R,16R)-19,23-dichloro-1-{[(2S)-1,4-dioxan-2-yl]methyl}-10-{[2-(2-methoxyphenyl)pyrimidin-4-yl]methoxy}-20,22-dimethyl-16-[(4-methylpiperazin-1-yl)methyl]-7,8,15,16-tetrahydro-18,21-etheno-13,9-(metheno)-6,14,17-trioxa-2-thia-3,5-diazacyclononadeca[1,2,3-cd]indene-7-carboxylic acid] | 0.64 nM | 9.81 | 0.0152 µM | 9.74 nM
4 | Cc1c(Cl)c2c(Cl)c(C)c1-c1c(-c3ccc(F)cc3)sc3ncnc(c13)O[C@@H](C(=O)O)Cc1cc(ccc1OCc1ccnc(N3CCO[C@@H](COCC4COCCO4)C3)n1)OC[C@@H](CN1CCN(C)CC1)O2 (stereo partly drawn) [Example 20, (7R,16R)-19,23-dichloro-10-({2-[(2R)-2-{[(1,4-dioxan-2-yl)methoxy]methyl}morpholin-4-yl]pyrimidin-4-yl}methoxy)-1-(4-fluorophenyl)-20,22-dimethyl-16-[(4-methylpiperazin-1-yl)methyl]-7,8,15,16-tetrahydro-18,21-etheno-13,9-(metheno)-6,14,17-trioxa-2-thia-3,5-diazacyclononadeca[1,2,3-cd]indene-7-carboxylic acid] | 0.47 nM | 10.24 | 0.000513 µM | 0.286 nM
5 | Cc1c(Cl)c2c(Cl)c(C)c1-c1c(-c3ccc(F)cc3)sc3ncnc(c13)O[C@@H](C(=O)O)Cc1cc(ccc1OCc1ccnc(-c3cccc(OC[C@H]4COCCO4)c3)n1)OC[C@@H](CN1CCN(C)CC1)O2 [Example 21, (7R,16R)-19,23-dichloro-10-{[2-(3-{[(2R)-1,4-dioxan-2-yl]methoxy}phenyl)pyrimidin-4-yl]methoxy}-1-(4-fluorophenyl)-20,22-dimethyl-16-[(4-methylpiperazin-1-yl)methyl]-7,8,15,16-tetrahydro-18,21-etheno-13,9-(metheno)-6,14,17-trioxa-2-thia-3,5-diazacyclononadeca[1,2,3-cd]indene-7-carboxylic acid] | 1.01 nM | 10.96 | 0.000168 µM | 0.0488 nM

From patent US10676485B2, “Macrocyclic MCL-1 inhibitors and methods of use” (AbbVie Inc., priority 2017, dated 2020)
